PMC9495829, “Quercetin Is a Novel Inhibitor of the Choline Kinase of Streptococcus pneumoniae” (Antibiotics, 2022)

Target: T1, choline kinase of Streptococcus pneumoniae (sChoK) (Streptococcus pneumoniae, UniProt Q8DPI4)
T1 construct: gene pck
Experiment: colorimetric choline kinase assay (IC50); PK/LDH kinetics on purified recombinant sChoK (Ki […] +/- […], unit inferred)
Format: biochemical

T1 sequence (Q8DPI4 entry or part of it): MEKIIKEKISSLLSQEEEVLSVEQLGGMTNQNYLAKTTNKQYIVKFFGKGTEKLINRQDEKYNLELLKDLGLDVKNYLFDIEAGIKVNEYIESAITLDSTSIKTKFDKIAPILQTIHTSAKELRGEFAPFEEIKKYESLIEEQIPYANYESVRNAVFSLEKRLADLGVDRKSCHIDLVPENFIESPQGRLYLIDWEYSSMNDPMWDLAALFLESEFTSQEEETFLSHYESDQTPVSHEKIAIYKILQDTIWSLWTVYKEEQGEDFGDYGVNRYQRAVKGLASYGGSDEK

`O=c1c(O)c(-c2ccc(O)c(O)c2)oc2cc(O)cc(O)c12` [quercetin] gave an IC50 of 6.18 µM.
